Test results: patent US8080580B2, “Dioxa-bicyclo[3.2.1]octane-2,3,4-triol derivatives” (Pfizer Inc., priority 2008, dated 2011)
Several values for one entry are separate records, joined by “and”; a condition that tells them apart may be missing. Equal entries are not always repeated.

Experiments:
human SGLT2 = molecular target: T1, human SGLT2 (Homo sapiens, UniProt P31639); experiment: SGLT2 functional assay: inhibition of AMG uptake in CHO-FlpIn cells stably expressing human SGLT2; type: cell-based; conditions: individual runs (Run No.), read-out: hSGLT2 IC50
T1 construct: expressed in transfected cells; host or cells: CHO-FlpIn (Invitrogen)
T1 sequence (P31639 1-672): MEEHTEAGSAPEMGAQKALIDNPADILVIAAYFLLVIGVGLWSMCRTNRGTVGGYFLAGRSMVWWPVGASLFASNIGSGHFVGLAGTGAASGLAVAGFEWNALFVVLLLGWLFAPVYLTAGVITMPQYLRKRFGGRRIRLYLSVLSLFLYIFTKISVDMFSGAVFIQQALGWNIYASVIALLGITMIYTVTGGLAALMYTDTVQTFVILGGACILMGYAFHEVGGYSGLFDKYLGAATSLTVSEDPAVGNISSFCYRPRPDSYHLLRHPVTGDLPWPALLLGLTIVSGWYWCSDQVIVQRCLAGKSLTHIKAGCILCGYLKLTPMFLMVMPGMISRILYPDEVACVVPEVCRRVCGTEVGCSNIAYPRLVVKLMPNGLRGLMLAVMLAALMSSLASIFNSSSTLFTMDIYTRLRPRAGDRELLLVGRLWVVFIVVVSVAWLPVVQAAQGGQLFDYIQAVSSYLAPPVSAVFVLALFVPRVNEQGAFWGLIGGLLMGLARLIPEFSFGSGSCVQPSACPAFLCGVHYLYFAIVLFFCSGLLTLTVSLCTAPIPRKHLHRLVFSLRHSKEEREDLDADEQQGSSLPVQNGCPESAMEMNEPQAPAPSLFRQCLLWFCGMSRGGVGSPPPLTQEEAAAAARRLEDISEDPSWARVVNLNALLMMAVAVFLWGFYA
From the text: The SGLT2 functional assay was designed to detect the inhibition of methyl-alpha-D glucopyranoside (AMG—a non-metabolizable form of glucose) uptake via the SGLT2 transporter. The SGLT2 transporter recovers glucose from the proximal tubules of the kidney; its inhibition results in sugar wasted in the urine. The positive control compound, Phlorizin, is a known inhibitor of glucose uptake for SGLT2 and was used for comparing the high percent effect of SGLT2 inhibition of the test compounds.
CHO-FlpIn (Invitrogen, Carlsbad, Calif.) cells stably expressing human SGLT2 (pcDNA5/FRT) were plated in Iso-TC 96 well plates (Perkin Elmer, Waltham, Mass.) at a density of 100,000 cells/well in 100 microL of growth media (1:1 F-12/DMEM media (Gibco, Carlsbad, Calif.), 10% FBS (Sigma, St. Louis Mo.), 1× Pen/Strep (Gibco, Carlsbad, Calif.), 600 microg/mL Hygromycin (Invitrogen, Carlsbad, Calif.)). Prior to treating with test compound, confluent cells were serum starved for 2 hours at 37° C. in 1:1 F-12/DMEM media, replacing with fresh F-12/DMEM media after 1 hour. […] Cell plates were then incubated for 3 hours at 37° C. for AMG uptake.

[1] = Pharmacokinetic testing in rats (IV or PO); type: in vivo; conditions: rat
Description: Examples 1A, 2A, 4A, 12A, and 14A were tested in rats to assess pharmacokinetic parameters including maximum concentration (Cmax), area under the plasma concentration time curve (AUC), clearance (CL), steady state volume of distribution (Vss), half life (t1/2), and bioavailability (F). Male Sprague Dawley rats (˜300 g) were used. Rats received compound by intravenous (IV) or oral gavage (PO) administration and the doses tested including vehicle to formulate dosing solutions are listed in Table 5.
Following IV or PO administration, 0.2 mL blood was sampled from the jugular vein at various timepoints (Table 5). Twenty microL aliquots of plasma samples and standards were subjected to protein precipitation with acetonitrile containing an internal standard. Samples were vortexed and centrifuged to obtain supernatant which was analyzed by LC-MS/MS. Analyst (Version 1.4.1) was used to measure peak areas and peak area ratios of analyte to internal standard were calculated. LC-MS/MS conditions are as follows: Mass Spectrometer+Source Type was Sciex API 4000−Turbo Spray; HPLC pump was Shimadzu; Autosampler was CTC PAL Autosampler; Injection volume was 3.0 to 10 microL; A gradient was used with mobile phase A: 10 mM ammonium acetate and 1% Isopropyl alcohol in water; B: Acetonitrile; Flowrate 0.300 mL per minute (Column 2.0×30 mm 5 microm LUNA C18 column (phenomenex)). Detection mode was negative.
A calibration curve was constructed from the peak area ratios of the standards to the internal standard by applying a weighted linear (1/x or 1/x2) regression. The dynamic range of the standard curve was 5.00 ng/mL to 5000 ng/mL.
Pharmacokinetic parameters were determined from individual animal data using non-compartmental analysis in Watson (version 7.2). Concentrations below the limit of quantitation (BLQ) were recorded as 0 ng/mL for use in calculations.
The following calculations were used: AUC(0−τ)=Determined using the linear trapezoidal method AUC(0−□)=AUC(0−τ) plus extrapolated area determined by dividing plasma concentration at τ by the slope of the terminal log-linear phase CL=Dose/AUC(0−∞) Vdss=CL×MRT Cmax=Recorded directly from plasma concentration time curve Tmax=Recorded directly from plasma concentration time curve t½=ln(0.5)/slope of the terminal log-linear phase F %=AUC(0−∞)PO per dose/AUC(0−∞)IV per dose C(0)=Extrapolated by linear regression from the apparent distribution phase following IV administration MRT=AUMC(AUC(0−∞)/AUC(0−∞)

hSGLT1 = molecular target: T2, hSGLT1 (Homo sapiens, UniProt P13866); experiment: SGLT1 functional assay: hSGLT1 IC50 (selectivity counter-screen to the SGLT2 AMG uptake assay); type: cell-based; conditions: individual runs (Run No.)
T2 sequence (P13866 1-664): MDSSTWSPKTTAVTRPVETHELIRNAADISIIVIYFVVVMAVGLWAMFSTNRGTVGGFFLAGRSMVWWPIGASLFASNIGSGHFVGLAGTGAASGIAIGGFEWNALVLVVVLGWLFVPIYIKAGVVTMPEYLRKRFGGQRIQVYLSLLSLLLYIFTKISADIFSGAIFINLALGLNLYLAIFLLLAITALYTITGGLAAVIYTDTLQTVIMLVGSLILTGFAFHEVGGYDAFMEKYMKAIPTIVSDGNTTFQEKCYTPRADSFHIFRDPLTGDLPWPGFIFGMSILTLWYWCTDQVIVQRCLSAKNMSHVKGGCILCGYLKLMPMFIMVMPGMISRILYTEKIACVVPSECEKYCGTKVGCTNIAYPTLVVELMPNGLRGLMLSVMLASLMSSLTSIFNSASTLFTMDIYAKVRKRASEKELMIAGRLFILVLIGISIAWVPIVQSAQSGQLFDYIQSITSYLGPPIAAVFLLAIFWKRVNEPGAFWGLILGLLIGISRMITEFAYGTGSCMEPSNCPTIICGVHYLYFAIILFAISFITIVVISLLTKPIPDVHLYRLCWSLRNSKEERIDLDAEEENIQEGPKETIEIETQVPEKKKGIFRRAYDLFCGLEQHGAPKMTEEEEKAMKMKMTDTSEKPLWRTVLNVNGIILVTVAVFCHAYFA

[2] = male, Sprague Dawley, plasma, IV, 2 mg/kg
[3] = male, Sprague Dawley, plasma, PO, 10 mg/kg, PEG200/0.5% MC

OC[C@@]12CO[C@@](c3ccc(Cl)c(Cc4ccc(OC5COC5)cc4)c3)(O1)[C@H](O)[C@@H](O)[C@@H]2O [Example 14A, (1S,2S,3S,4R,5S)-5-{4-chloro-3-[4-(oxetan-3-yloxy)-benzyl]-phenyl}-1-hydroxymethyl-6,8-dioxa-bicyclo[3.2.1]octane-2,3,4-triol]
IC50 (human SGLT2): 2.28 nM and 3.12 nM and 2.39 nM and 2.87 nM
AUC(0-inf) [1, 2]: 1060 ng·h/mL
clearance [1, 2]: 31.7 mL/min/kg
half-life [1, 2]: 81.6 min
Vd ([1]; male, Sprague Dawley, plasma, IV, 2 mg/kg, read-out: Vss): 1.69 L/kg
AUC(0-inf) [1, 3]: 2290 ng·h/mL
Cmax [1, 3]: 551 ng/mL
half-life [1, 3]: 103 min
F ([1]; PO, 10 mg/kg, PEG200/0.5% MC): 43.5%
IC50 (hSGLT1): > 10 µM
